Patent publication EP1117659B1, “SUBSTITUTED 3-CYANOQUINOLINES AS PROTEIN TYROSINE KINASES INHIBITORS” (Wyeth Holdings Corporation, priority 1998, dated 2000)
Values joined by “and” are separate entries in the source; they are usually repeats but may differ in a detail not shown here. Identical values can stand only once. Like-named read-outs stand apart in the source and are kept apart here.

Assays:
Assay type in all cases: biochemical
[1] = biological target: T1, epidermal growth factor receptor kinase (EGF-R Kinase, recombinant enzyme; His-tagged cytoplasmic domain of EGFR) (Homo sapiens, UniProt P00533); test: Inhibition of Epidermal Growth Factor Receptor Kinase (EGF-R) using recombinant enzyme, RR-SRC peptide phosphorylation, 33P-ATP; conditions: for inhibition at 0.5 µM: read-out: %Inh @ 0.5 µM; for IC50: recombinant enzyme, 90 min at room temperature
T1 construct: EGFR cDNA encoding amino acids 645 - 1186 preceded by Met-Ala-(His)6; Met-Ala-(His)6 (N); made in house; host or cells: Sf9 insect cells, recombinant baculovirus vHcEGFR52
T1 sequence (P00533 669-1210): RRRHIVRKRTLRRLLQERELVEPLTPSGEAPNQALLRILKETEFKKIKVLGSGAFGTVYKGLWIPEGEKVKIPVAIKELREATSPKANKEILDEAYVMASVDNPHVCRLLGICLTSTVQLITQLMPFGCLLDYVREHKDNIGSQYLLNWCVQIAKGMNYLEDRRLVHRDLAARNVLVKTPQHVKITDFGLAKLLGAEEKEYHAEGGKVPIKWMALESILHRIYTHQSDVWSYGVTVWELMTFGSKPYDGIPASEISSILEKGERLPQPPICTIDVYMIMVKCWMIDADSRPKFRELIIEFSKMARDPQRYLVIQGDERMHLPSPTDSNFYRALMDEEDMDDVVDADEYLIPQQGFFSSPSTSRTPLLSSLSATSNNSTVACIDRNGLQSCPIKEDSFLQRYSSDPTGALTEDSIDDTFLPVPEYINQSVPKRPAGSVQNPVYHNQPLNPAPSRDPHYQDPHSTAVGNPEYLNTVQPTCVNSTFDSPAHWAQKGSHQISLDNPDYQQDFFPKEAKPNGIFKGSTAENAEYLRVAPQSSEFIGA
Experimental: Representative test compounds were evaluated for their ability to inhibit the phosphorylation of the tyrosine residue of a peptide substrate catalyzed by the enzyme epidermal growth factor receptor kinase. The peptide substrate (RR-SRC) has the sequence arg-arg-leu-ile-glu-asp-ala-glu-tyr-ala-ala-arg-gly. The enzyme used in this test procedure is the His-tagged cytoplasmic domain of EGFR. A recombinant baculovirus (vHcEGFR52) was constructed containing the EGFR cDNA encoding amino acids 645 - 1186 preceded by Met-Ala-(His)6. Sf9 cells in 100 mm plates were infected at an moi of 10 pfu/cell and cells were harvested 48 h post infection. A cytoplasmic extract was prepared using 1% Triton X-100 and applied to Ni-NTA column. After washing the column with 20 mM imidazole, HcEGFR was eluted with 250 mM imidazole (in 50 mM Na2HPO4, pH 8.0, 300 mM NaCl). Fractions collected were dialyzed against 10 mM HEPES, pH 7.0, 50 mM NaCl, 10% glycerol, lug/mL antipain and leupeptin and 0.1 mM Pefabloc SC. The protein was frozen in dry ice/methanol and stored -70°C.
Test compounds were made into 10 mg/mL stock solutions in 100% dimethylsulfoxide (DMSO). Prior to experiment, stock solutions were diluted to 500 uM with 100% DMSO and then serially diluted to the desired concentration with HEPES buffer (30 mM HEPES pH 7.4).
For the enzyme reaction, 10 uL of each inhibitor (at various concentrations) were added to each well of a 96-well plate. To this was added 3 uL of enzyme (1:10 dilution in 10mM HEPES, pH 7.4 for final cone. of 1:120). This was allowed to sit for 10 min on ice and was followed by the addition of 5 ul peptide (80 uM final cone.), 10ul of 4X Buffer (Table A), 0.25 uL ^33P-ATP and 12 uL H2O. The reaction was allowed to run for 90 min at room temperature and was followed by spotting the entire volume on to precut P81 filter papers. The filter discs were washed 2X with 0.5% phosphoric acid and radioactivity was measured using a liquid scintillation counter.
The inhibition data for representative compounds of the invention are shown below in TABLE 1. […] The % inhibition of the test compound was determined for at least three different concentrations and the IC50 value was evaluated from the dose response curve. […] CPM(control) is in units of counts per minute and was a number expressing the amount of radiolabled ATP (γ-^33P) incorporated into the RR-SRC peptide substrate by the enzyme after 90 minutes at room temperature in the absence of test compound as measured by liquid scintillation counting. The CPM values were corrected for the background counts produced by ATP in the absence of the enzymatic reaction. […]

[2] = biological target: Epithelial Cell Kinase (ECK) (Homo sapiens, UniProt P29317); test: Inhibition of Epithelial Cell Kinase (ECK), immobilized biotinylated peptide, HRP anti-phosphotyrosine readout; conditions: IC50, substrate phosphorylation
Chain of Epithelial Cell Kinase (ECK) (P29317 24-976, species assumed): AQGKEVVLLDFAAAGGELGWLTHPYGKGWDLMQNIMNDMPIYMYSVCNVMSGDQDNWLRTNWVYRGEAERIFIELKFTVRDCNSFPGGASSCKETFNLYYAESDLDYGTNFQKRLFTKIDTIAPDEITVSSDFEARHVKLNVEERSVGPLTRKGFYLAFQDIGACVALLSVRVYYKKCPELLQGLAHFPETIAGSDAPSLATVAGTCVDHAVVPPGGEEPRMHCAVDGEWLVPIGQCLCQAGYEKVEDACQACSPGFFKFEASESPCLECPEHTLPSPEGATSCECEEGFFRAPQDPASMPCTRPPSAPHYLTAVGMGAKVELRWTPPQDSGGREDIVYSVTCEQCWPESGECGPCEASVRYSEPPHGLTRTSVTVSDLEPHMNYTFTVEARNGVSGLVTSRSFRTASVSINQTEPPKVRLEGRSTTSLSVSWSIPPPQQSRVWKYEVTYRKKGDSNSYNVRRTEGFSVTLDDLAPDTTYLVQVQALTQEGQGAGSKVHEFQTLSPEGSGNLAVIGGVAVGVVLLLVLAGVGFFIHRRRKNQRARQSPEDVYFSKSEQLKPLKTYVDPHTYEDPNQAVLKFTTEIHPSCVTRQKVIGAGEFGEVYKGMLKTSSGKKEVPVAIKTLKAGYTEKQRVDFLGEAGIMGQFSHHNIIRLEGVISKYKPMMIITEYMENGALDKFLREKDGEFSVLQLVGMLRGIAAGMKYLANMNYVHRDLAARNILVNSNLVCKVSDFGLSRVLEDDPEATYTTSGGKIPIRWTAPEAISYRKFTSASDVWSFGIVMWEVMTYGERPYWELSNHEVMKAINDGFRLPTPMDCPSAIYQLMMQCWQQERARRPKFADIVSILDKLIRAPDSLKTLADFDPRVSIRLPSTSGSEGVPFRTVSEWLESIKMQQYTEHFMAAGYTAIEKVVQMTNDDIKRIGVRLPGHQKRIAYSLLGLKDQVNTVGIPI
Experimental: In this standard pharmacological test procedure, a biotinylated peptide substrate is first immobilized on neutravidin-coated microtiter plates. The test drug, the Epithelial Cell Kinase (ECK), Mg^++, sodium vanadate (a protein tyrosine phosphatase inhibitor), and an appropriate buffer to maintain pH (7.2) are then added to the immobilized substrate-containing microtiter wells. ATP is then added to initiate phosphorylation. After incubation, the assay plates are washed with a suitable buffer leaving behind phosphorylated peptide which is exposed to horse radish peroxidase (HRP)-conjugated anti-phosphotyrosine monoclonal antibody. The antibody-treated plates are washed again and the HRP activity in individual wells is quantified as a reflection of degree of substrate phosphorylation. […] Multiple entries for a given compound indication it was tested multiple times.

[3] = biological target: T2, Kinase insert Domain containing Receptor (KDR: the catalytic domain of the VEGF receptor) (Homo sapiens, UniProt P35968); test: Inhibition of Kinase insert Domain containing Receptor (KDR), radioactive phosphorylation of Glu:Tyr copolymer; conditions: IC50, substrate phosphorylation
T2 construct: KDR: the catalytic domain of the VEGF receptor
T2 sequence (P35968 834-1162 limits assumed): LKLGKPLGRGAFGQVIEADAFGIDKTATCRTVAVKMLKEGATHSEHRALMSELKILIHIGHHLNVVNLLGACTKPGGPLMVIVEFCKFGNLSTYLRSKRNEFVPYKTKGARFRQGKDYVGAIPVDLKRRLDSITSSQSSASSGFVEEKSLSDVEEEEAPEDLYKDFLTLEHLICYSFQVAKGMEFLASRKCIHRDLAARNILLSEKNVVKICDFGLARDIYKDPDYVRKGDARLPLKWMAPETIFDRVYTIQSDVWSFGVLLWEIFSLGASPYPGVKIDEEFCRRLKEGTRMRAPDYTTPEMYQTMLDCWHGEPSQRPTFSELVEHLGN
Experimental: In this standard pharmacological test procedure, KDR protein is mixed, in the presence or absence of a inhibitor compound, with a substrate peptide to be phosphorylated (a copolymer of glutamic acid and tyrosine, E:Y :: 4:1) and other cofactors such as Mg^++ and sodium vanadate (a protein tyrosine phosphatase inhibitor) in an appropriate buffer to maintain pH (7.2). ATP and a radioactive tracer (either P^32- or P^33- labeled ATP) is then add to initiate phosphorylation. After incubation, the radioactive phosphate associated with the acid-insoluble fraction of the assay mixture is then quantified as reflection of substrate phosphorylation. […] Multiple entries for a given compound indication it was tested multiple times.

[4] = biological target: Recombinant human MEK 1 (MAPKK) / recombinant human ERK2 (MAPK) (Mek-Erk) (Homo sapiens, UniProt P28482+Q02750); test: Mitogen Activated Protein Kinase (MAPK) assay, two component coupled Mek-Erk test
Chain of Recombinant human MEK 1 (MAPKK) / recombinant human ERK2 (MAPK) (Mek-Erk) (P28482 2-360): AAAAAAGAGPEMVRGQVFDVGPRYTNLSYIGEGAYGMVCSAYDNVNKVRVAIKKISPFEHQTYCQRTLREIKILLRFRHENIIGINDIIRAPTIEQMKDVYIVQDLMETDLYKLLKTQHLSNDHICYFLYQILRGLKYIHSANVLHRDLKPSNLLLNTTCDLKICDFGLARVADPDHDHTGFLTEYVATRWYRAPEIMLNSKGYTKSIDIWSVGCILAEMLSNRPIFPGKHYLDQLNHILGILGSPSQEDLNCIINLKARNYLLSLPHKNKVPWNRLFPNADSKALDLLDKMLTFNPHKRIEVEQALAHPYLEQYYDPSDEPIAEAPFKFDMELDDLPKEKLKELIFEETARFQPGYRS
Chain of Recombinant human MEK 1 (MAPKK) / recombinant human ERK2 (MAPK) (Mek-Erk) (Q02750 whole entry): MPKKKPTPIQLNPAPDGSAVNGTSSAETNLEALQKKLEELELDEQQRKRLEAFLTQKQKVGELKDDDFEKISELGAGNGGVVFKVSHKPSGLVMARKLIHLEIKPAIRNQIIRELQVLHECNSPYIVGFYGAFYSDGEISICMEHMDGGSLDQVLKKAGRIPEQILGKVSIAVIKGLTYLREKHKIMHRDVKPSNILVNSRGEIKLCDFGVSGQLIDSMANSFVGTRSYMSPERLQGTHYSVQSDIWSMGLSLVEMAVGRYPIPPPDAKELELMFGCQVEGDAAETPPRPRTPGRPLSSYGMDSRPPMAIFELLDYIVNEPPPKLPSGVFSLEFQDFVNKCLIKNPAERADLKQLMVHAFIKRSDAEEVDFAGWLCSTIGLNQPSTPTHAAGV

SMILES | inhibition at 0.5 µM [1] | IC50 [1] | IC50 [2] | IC50 [3] | IC50 ([4]; read-out: Mek-Erk) | IC50 ([4]; read-out: Mek-Erk µM)
COc1cc2ncc(C#N)c(Nc3ccc4c(C)cc(=O)[nH]c4c3)c2cc1OC [Example 129, 6,7-Dimethoxy-4-(4-methyl-2-oxo-1,2-dihydro-quinolin-7-ylamino)-quinoline-3-carbonitrile] | 6.7% | > 1 µM | > 25.9 µM | > 25.9 µM | > 100 µM | –
COc1cc2ncc(C#N)c(Nc3ccc4sc(C)nc4c3)c2cc1OC [Example 130, 6,7-Dimethoxy-4-(2-methyl-benzothiazol-5-ylamino)-quinoline-3-carbonitrile] | 5% | > 1 µM | > 26.6 µM | > 26.6 µM | > 100 µM | –
COc1cc2ncc(C#N)c(Nc3ccc4[nH]c(=O)sc4c3)c2cc1OC [Example 131, 6,7-Dimethoxy-4-(2-oxo-2,3-dihydro-benzothiazol-6-ylamino)-quinoline-3-carbonitrile] | 0% | > 1 µM | > 26.4 µM | > 26.4 µM | > 100 µM | –
COc1cc2ncc(C#N)c(Nc3cccc4ncccc34)c2cc1OC [Example 132, 6,7-Dimethoxy-4-(quinolin-5-ylamino)-quinoline-3-carbonitrile] | 0% | > 1 µM | > 28.1 µM | > 28.1 µM | 90 µM | –
COc1cc2ncc(C#N)c(Nc3cccc4cnccc34)c2cc1OC [Example 133, 4-(Isoquinolin-5-ylamino)-6,7-dimethoxy-quinoline-3-carbonitrile] | 0% | > 1 µM | > 28.1 µM | > 28.1 µM | 90 µM | –
COc1cc2ncc(C#N)c(Nc3cccc4cccnc34)c2cc1OC [Example 134, 6,7-Dimethoxy-4-(quinolin-8-ylamino)-quinoline-3-carbonitrile] | 35% | > 1 µM | > 28.1 µM | > 28.1 µM | > 100 µM | –
COc1cc2ncc(C#N)c(Nc3ccc(O)c4ncccc34)c2cc1OC [Example 135, 4-(8-Hydroxy-quinolin-5-ylamino)-6,7-dimethoxy-quinoline-3-carbonitrile] | 0% | > 1 µM | 0.537 µM | 26.9 µM | > 100 µM | –
COc1ccc2ncc(C#N)c(Nc3ccc4cn[nH]c4c3)c2c1 [Example 141, 4-(1H -Indazol 6-ylamino)-6-methoxy-quinoline-3-carbonitrile] | 5.5% | > 1 µM | > 31.7 µM | 63.4 µM | 1.1 µM and 2 µM | –
COc1ccc2ncc(C#N)c(Nc3ccc4nn[nH]c4c3)c2c1 [Example 142, 4-(3H -Benzotriazol-5-ylamino)-6-methoxy-quinoline-3-carbonitrile] | 24% | > 1 µM | > 31.6 µM | 94.8 µM | 30 µM | –
COc1ccc2c(Nc3ccc4nn[nH]c4c3)c(C#N)cnc2c1 [Example 144, 4-(3H -benzotriazol-5-ylamino)-7-methoxy-quinoline-3-carbinitile] | 14% | > 1 µM | > 31.6 µM | > 94.8 µM and 94.8 µM | – | > 100 µM
COc1cccc2c(Nc3ccc4cn[nH]c4c3)c(C#N)cnc12 [Example 148, 4-(1H -Indazol-6-ylamino)-8-methoxy-quinoline-3-carbonitrile] | 11% | > 1 µM | > 63.4 µM | > 95.1 µM | > 100 µM | –
COc1cccc2c(Nc3ccc4nn[nH]c4c3)c(C#N)cnc12 [Example 149, 4-(3H -benzotriazol-5-ylamino)-8-methoxy-quinoline-3-carbonitrile] | 9% | > 1 µM | > 31.6 µM | > 94.8 µM | – | > 100 µM
